System: LPS-induced TNF-α release in peripheral blood mononuclear cells (PBMCs)
Assay: In vitro determination of PDE4 inhibitory activity in the PBMCs assay (LPS-induced TNF-α release)
Assay type: cell-based
Details: PBMC; human PBMCs, LPS 3 ng/ml, 18 hours; read-out: PDE4 inhibition (IC50, 50% inhibition of LPS-induced TNF-α release)
Experimental: The assay, which is based on the known inhibitory activity exerted by PDE4 inhibitors on the lipopolyshaccarides (LPS)-induced tumour necrosis factor-alpha (TNF-α release in peripheral blood mononuclear cells (PBMCs), was performed according to a method previously described (Hatzelmann A et al., J. Pharmacol. Exp. Ther., 2001; 297:267-279; and Draheim R et al., J. Pharmacol. Exp. Ther., 2004; 308:555-563, both of which are incorporated herein by reference in their entireties. Cryopreserved human PBMCs, (100 μl/well) were incubated in 96-well plates (10^5 cells/well), for 30 minutes, in the presence or absence (50 microl) of the test compounds whose concentrations ranged from 10^−12 M to 10^−6 M or from 10^−13 M to 10^−7 M. Subsequently, LPS (3 ng/ml) was added. After 18 hours of incubation at 37° C. in a humidified incubator under an atmosphere of 95% air and 5% CO2, culture medium was collected and TNF-α measured by ELISA.
The results of the tested compounds, representatives of the invention, expressed as mean±95% confidence limits of the molar concentration of the test compound producing 50% inhibition of LPS-induced TNF-α release (IC50) are shown in the following Table: […]

| Structure (SMILES) | IC50 [nM] |
| --- | --- |
| O=C(Cn1c(=O)c(=O)n(CCN2CCOCC2)c2ccccc21)O[C@@H](Cc1c(Cl)c[n+]([O-])cc1Cl)c1ccc(OC(F)F)c(OCC2CC2)c1 [Compound 37, (S)-3,5-dichloro-4-(2-(3-(cyclopropylmethoxy)-4-(difluoromethoxy)phenyl)-2-(2-(4-(2-morpholinoethyl)-2,3-dioxo-3,4-dihydroquinoxalin-1(2H)-yl)acetoxy)ethyl)pyridine 1-oxide] | < 1 |
| CS(=O)(=O)N(CCN1CCOCC1)c1ccc2c(c1)C(=O)C(=O)N2CC(=O)O[C@@H](Cc1c(Cl)c[n+]([O-])cc1Cl)c1ccc(OC(F)F)c(OCC2CC2)c1 [Compound 240, (S)-3,5-dichloro-4-(2-(3-(cyclopropylmethoxy)-4-(difluoromethoxy)phenyl)-2-(2-(5-(N-(2-morpholinoethyl)methylsulfonamido)-2,3-dioxoindolin-1-yl)acetoxy)ethyl)pyridine 1-oxide] | < 1 |
| O=C(CN1C(=O)c2ccccc2C1=O)O[C@H](Cc1c(Cl)c[n+]([O-])cc1Cl)c1ccc(OC(F)F)c(OCC2CC2)c1 [Compound 29] | > 10 |
| CN1CCN(CCN(c2ccc3c(c2)C(=O)N(CC(=O)O[C@@H](Cc2c(Cl)c[n+]([O-])cc2Cl)c2ccc(OC(F)F)c(OCC4CC4)c2)C3=O)S(C)(=O)=O)CC1 [Compound 213, (S)-3,5-Dichloro-4-(2-(3-(cyclopropylmethoxy)-4-(difluoromethoxy)-phenyl)-2-(2-(5-(N-(2-(4-methylpiperazin-1-yl)ethyl)methylsulfonamido)-1,3-dioxoisoindolin-2-yl)acetoxy)ethyl)pyridine 1-oxide] | < 1 |
| CS(=O)(=O)N(CCN1CCOCC1)Cc1ccc2c(c1)C(=O)N(CC(=O)O[C@@H](Cc1c(Cl)c[n+]([O-])cc1Cl)c1ccc(OC(F)F)c(OCC3CC3)c1)C2=O [Compound 258, (S)-3,5-dichloro-4-(2-(3-(cyclopropylmethoxy)-4-(difluoromethoxy)phenyl)-2-(2-(5-((N-(2-morpholinoethyl)methylsulfonamido)methyl)-1,3-dioxoisoindolin-2-yl)acetoxy)ethyl)pyridine 1-oxide] | < 1 |
| CS(=O)(=O)Nc1ccc2c(ccn2CC(=O)O[C@@H](Cc2c(Cl)c[n+]([O-])cc2Cl)c2ccc(OC(F)F)c(OCC3CC3)c2)c1 [Compound 76, (S)-3,5-dichloro-4-(2-(3-(cyclopropylmethoxy)-4-(difluoromethoxy)phenyl)-2-(2-(5-(methylsulfonamido)-1H-indol-1-yl)acetoxy)-ethyl)pyridine 1-oxide] | < 1 |
| O=C(Cn1ccc2cnccc21)O[C@@H](Cc1c(Cl)c[n+]([O-])cc1Cl)c1ccc(OC(F)F)c(OCC2CC2)c1 [Compound 61] | 1 to 10 |
| O=C(CN1C(=O)c2ccc(NO)cc2C1=O)O[C@@H](Cc1c(Cl)c[n+]([O-])cc1Cl)c1ccc(OC(F)F)c(OCC2CC2)c1 [Compound 169, (S)-3,5-dichloro-4-(2-(3-(cyclopropylmethoxy)-4-(difluoromethoxy)phenyl)-2-(2-(5-(hydroxyamino)-1,3-dioxoisoindolin-2-yl)acetoxy)ethyl)pyridine 1-oxide] | < 1 |
| Cn1cnc2c1c(=O)n(CC(=O)O[C@@H](Cc1c(Cl)c[n+]([O-])cc1Cl)c1ccc(OC(F)F)c(OCC3CC3)c1)c(=O)n2C [Compound 20] | < 1 |
| O=C(CN1C(=O)C(=O)c2cc([N+](=O)[O-])ccc21)O[C@@H](Cc1c(Cl)c[n+]([O-])cc1Cl)c1ccc(OC(F)F)c(OCC2CC2)c1 [Compound 26] | > 10 |
| CS(=O)(=O)Nc1ccc2c(c1)C(=O)N(CC(=O)O[C@@H](Cc1c(Cl)c[n+]([O-])cc1Cl)c1ccc(OC(F)F)c(OCC3CC3)c1)C2 [Compound 10, (S)-3,5-dichloro-4-(2-(3-(cyclopropylmethoxy)-4-(difluoromethoxy)phenyl)-2-(2-(6-(methylsulfonamido)-1-oxoisoindolin-2-yl)acetoxy)ethyl)pyridine 1-oxide] | 1 to 10 |
| Cc1noc(C)c1CN(c1ccc2c(c1)C(=O)N(CC(=O)O[C@@H](Cc1c(Cl)c[n+]([O-])cc1Cl)c1ccc(OC(F)F)c(OCC3CC3)c1)C2=O)S(C)(=O)=O [Compound 191] | < 1 |

Source: US9024027B2, “Derivatives of 1-phenyl-2-pyridinyl alkyl alcohols as phosphodiesterase inhibitors” (Chiesi Farmaceutici S.p.A., priority 2011, dated 2015)
